Laboratory results reported in US5393743A, “Erythromycin derivatives” (Abbott Laboratories, priority 1993, dated 1995).
Values after ≈ are worked out from the molar mass of the structure shown. Like-named read-outs stand apart in the source and are kept apart here.

How the values were obtained:
[1] = system: Acinetobacter calcoaceticus CMX 669; experiment: In vitro antibacterial activity, agar dilution MIC; type: cell-based; settings: Acinetobacter calcoaceticus CMX 669, BHI agar, 35°-37° C., 20 to 24 hours
Procedure: (§1) Representative compounds of the present invention were assayed in vitro for antibacterial activity as follows: Twelve petri dishes containing successive aqueous dilutions of the test compound mixed with 10 mL of sterilized Brain Heart Infusion (BHI) agar (Difco 0418-01-5) were prepared. Each plate was inoculated with 1:100 (or 1:10 for slow-growing strains, such as Micrococcus and Streptococcus) dilutions of up to 32 different microorganisms, using a Steers replicator block. The inoculated plates were incubated 35°-37° C. for 20 to 24 hours. In addition, a control plate, using BHI agar containing no test compound, was prepared and incubated at the beginning and end of each test.
(§2) An additional plate containing a compound having known susceptibility patterns for the organisms being tested and belonging to the same antibiotic class as the test compound was also prepared and incubated as a further control, as well as to provide test-to-test comparability. Erythromycin A was used for this purpose.
(§3) After incubation, each disk was read. The minimum inhibitory concentration (MIC) was defined as the lowest concentration of drug yielding no growth, a slight haze, or sparsely isolated colonies on the inoculum spot as compared to the growth control.

[2] = system: Enterobacter aerogenes ATCC 13048; experiment: In vitro antibacterial activity, agar dilution MIC; type: cell-based; settings: Enterobacter aerogenes ATCC 13048, BHI agar, 35°-37° C., 20 to 24 hours
Procedure: as §1, §2, §3

[3] = system: Enterococcus faecium ATCC 8043; experiment: In vitro antibacterial activity, agar dilution MIC; type: cell-based
Procedure: as §1, §2, §3

[4] = system: Escherichia coli DC-2; experiment: In vitro antibacterial activity, agar dilution MIC; type: cell-based; settings: Escherichia coli DC-2, BHI agar, 35°-37° C., 20 to 24 hours
Procedure: as §1, §2, §3

[5] = system: Escherichia coli H560; experiment: In vitro antibacterial activity, agar dilution MIC; type: cell-based; settings: Escherichia coli H560, BHI agar, 35°-37° C., 20 to 24 hours
Procedure: as §1, §2, §3

[6] = system: Escherichia coli Juhl; experiment: In vitro antibacterial activity, agar dilution MIC; type: cell-based; settings: Escherichia coli Juhl, BHI agar, 35°-37° C., 20 to 24 hours
Procedure: as §1, §2, §3

[7] = system: Escherichia coli KNK 437; experiment: In vitro antibacterial activity, agar dilution MIC; type: cell-based; settings: Escherichia coli KNK 437, BHI agar, 35°-37° C., 20 to 24 hours
Procedure: as §1, §2, §3

[8] = system: Klebsiella pneumoniae ATCC 8045; experiment: In vitro antibacterial activity, agar dilution MIC; type: cell-based; settings: Klebsiella pneumoniae ATCC 8045, BHI agar, 35°-37° C., 20 to 24 hours
Procedure: as §1, §2, §3

[9] = system: Micrococcus luteus 4698; experiment: In vitro antibacterial activity, agar dilution MIC; type: cell-based
Procedure: as §1, §2, §3

[10] = system: Providencia stuartii CMX 640; experiment: In vitro antibacterial activity, agar dilution MIC; type: cell-based; settings: Providencia stuartii CMX 640, BHI agar, 35°-37° C., 20 to 24 hours
Procedure: as §1, §2, §3

[11] = system: Pseudomonas aeruginosa 2862; experiment: In vitro antibacterial activity, agar dilution MIC; type: cell-based; settings: Pseudomonas aeruginosa 2862, BHI agar, 35°-37° C., 20 to 24 hours
Procedure: as §1, §2, §3

[12] = system: Pseudomonas aeruginosa 5263; experiment: In vitro antibacterial activity, agar dilution MIC; type: cell-based; settings: Pseudomonas aeruginosa 5263, BHI agar, 35°-37° C., 20 to 24 hours
Procedure: as §1, §2, §3

[13] = system: Pseudomonas aeruginosa A5007; experiment: In vitro antibacterial activity, agar dilution MIC; type: cell-based; settings: Pseudomonas aeruginosa A5007, BHI agar, 35°-37° C., 20 to 24 hours
Procedure: as §1, §2, §3

[14] = system: Pseudomonas aeruginosa BMH10; experiment: In vitro antibacterial activity, agar dilution MIC; type: cell-based; settings: Pseudomonas aeruginosa BMH10, BHI agar, 35°-37° C., 20 to 24 hours
Procedure: as §1, §2, §3

[15] = system: Pseudomonas aeruginosa K799/WT; experiment: In vitro antibacterial activity, agar dilution MIC; type: cell-based; settings: Pseudomonas aeruginosa K799/WT, BHI agar, 35°-37° C., 20 to 24 hours
Procedure: as §1, §2, §3

[16] = system: Pseudomonas cepacia 2961; experiment: In vitro antibacterial activity, agar dilution MIC; type: cell-based; settings: Pseudomonas cepacia 2961, BHI agar, 35°-37° C., 20 to 24 hours
Procedure: as §1, §2, §3

[17] = system: Staphylococcus aureus 1775 Cipro R; experiment: In vitro antibacterial activity, agar dilution MIC; type: cell-based; settings: Staphylococcus aureus 1775 Cipro R, BHI agar, 35°-37° C., 20 to 24 hours
Procedure: as §1, §2, §3

[18] = system: Staphylococcus aureus A5177; experiment: In vitro antibacterial activity, agar dilution MIC; type: cell-based; settings: Staphylococcus aureus A5177, BHI agar, 35°-37° C., 20 to 24 hours
Procedure: as §1, §2, §3

[19] = system: Staphylococcus aureus A5278; experiment: In vitro antibacterial activity, agar dilution MIC; type: cell-based; settings: Staphylococcus aureus A5278, BHI agar, 35°-37° C., 20 to 24 hours
Procedure: as §1, §2, §3

[20] = system: Staphylococcus aureus ATCC 6538P; experiment: In vitro antibacterial activity, agar dilution MIC; type: cell-based
Procedure: as §1, §2, §3

[21] = system: Staphylococcus aureus CMX 553; experiment: In vitro antibacterial activity, agar dilution MIC; type: cell-based
Procedure: as §1, §2, §3

[22] = system: Staphylococcus aureus CMX 642a; experiment: In vitro antibacterial activity, agar dilution MIC; type: cell-based
Procedure: as §1, §2, §3

[23] = system: Staphylococcus aureus NCTC 10649; experiment: In vitro antibacterial activity, agar dilution MIC; type: cell-based
Procedure: as §1, §2, §3

[24] = system: Staphylococcus epidermidis 3519; experiment: In vitro antibacterial activity, agar dilution MIC; type: cell-based
Procedure: as §1, §2, §3

[25] = system: Streptococcus agalactiae 508; experiment: In vitro antibacterial activity, agar dilution MIC; type: cell-based
Procedure: as §1, §2, §3

[26] = system: Streptococcus bovis A5169; experiment: In vitro antibacterial activity, agar dilution MIC; type: cell-based
Procedure: as §1, §2, §3

[27] = system: Streptococcus pyogenes 2548 induc; experiment: In vitro antibacterial activity, agar dilution MIC; type: cell-based
Procedure: as §1, §2, §3

[28] = system: Streptococcus pyogenes 930 const; experiment: In vitro antibacterial activity, agar dilution MIC; type: cell-based; settings: Streptococcus pyogenes 930 const, BHI agar, 35°-37° C., 20 to 24 hours
Procedure: as §1, §2, §3

[29] = system: Streptococcus pyogenes EES61; experiment: In vitro antibacterial activity, agar dilution MIC; type: cell-based
Procedure: as §1, §2, §3

[30] = system: Candida albicans CCH 442; experiment: microbe, parasite or virus in culture; settings: CCH442
Procedure: as §1, §2, §3

[31] = system: Escherichia coli SS; experiment: microbe, parasite or virus in culture
Procedure: as §1, §2, §3

[32] = system: Micrococcus luteus ATCC 9341; experiment: microbe, parasite or virus in culture
Procedure: as §1, §2, §3

[33] = system: Nocardia asteroides ATCC 9970; experiment: microbe, parasite or virus in culture; settings: ATCC9970
Procedure: as §1, §2, §3

[34] = system: Pseudomonas aeruginosa K799/61; experiment: In vitro antibacterial activity, agar dilution MIC; type: cell-based; settings: BHI agar, 35°-37° C., 20 to 24 hours
[35] = system: Mycobacterium smegmatis ATCC 114; experiment: In vitro antibacterial activity, agar dilution MIC; type: cell-based; settings: Mycolicibacterium smegmatis, ATCC114, BHI agar, 35°-37° C., 20 to 24 hours

With `CC[C@H]1OC(=O)[C@H](C)[C@@H](O[C@H]2C[C@](C)(F)[C@@H](OC)[C@H](C)O2)[C@H](C)[C@@H](O[C@@H]2O[C@H](C)C[C@H](N(C)C)[C@H]2O)[C@](C)(O)C[C@@H](C)C(=O)[C@H](C)[C@@H](O)[C@]1(C)O` [Example 9, (3"s)--3"-Desmethoxy-3"-fluoro-4"-O-methylerythromycin A] the MIC ([1]; CMX669, read-out: MIC) was over 100 µg/mL, the MIC ([2]; Klebsiella aerogenes, ATCC13048, read-out: MIC) was over 100 µg/mL and the MIC ([3]; Enterococcus faecium, ATCC8043) was 0.39 µg/mL (≈ 0.53 µM). It also gave an MIC ([4]; DC2, read-out: MIC) of over 100 µg/mL, an MIC ([5]; read-out: MIC) of over 100 µg/mL and an MIC ([6]; read-out: MIC) of over 100 µg/mL. For the same molecule, the MIC ([7]; KNK437, read-out: MIC) was over 100 µg/mL, the MIC ([8]; ATCC8045, read-out: MIC) was over 100 µg/mL and the MIC ([9]; Micrococcus luteus, 4698) was 0.39 µg/mL (≈ 0.53 µM). For the same molecule, the MIC ([10]; CMX640, read-out: MIC) was over 100 µg/mL, the MIC ([11]; read-out: MIC) was over 100 µg/mL and the MIC ([12]; read-out: MIC) was over 100 µg/mL. It also gave an MIC ([13]; read-out: MIC) of over 100 µg/mL, an MIC ([14]; read-out: MIC) of over 100 µg/mL and an MIC ([15]; read-out: MIC) of over 100 µg/mL. The MIC ([16]; Burkholderia cepacia, read-out: MIC) was over 100 µg/mL, the MIC ([17]; 1775CIPROR, read-out: MIC) was over 100 µg/mL and the MIC ([18]; read-out: MIC) was 12.5 µg/mL (≈ 17 µM). For the same molecule, the MIC ([19]; read-out: MIC) was over 100 µg/mL, the MIC ([20]; Staphylococcus aureus, ATCC6538P) was 1.56 µg/mL (≈ 2.12 µM) and the MIC ([21]; Staphylococcus aureus, CMX553) was 1.56 µg/mL (≈ 2.12 µM). For the same molecule, the MIC ([22]; Staphylococcus aureus, CMX642A) was 1.56 µg/mL (≈ 2.12 µM), the MIC ([23]; Staphylococcus aureus, NCTC10649) was 1.56 µg/mL (≈ 2.12 µM) and the MIC ([24]; Staphylococcus epidermidis, 3519) was 1.56 µg/mL (≈ 2.12 µM). For the same molecule, the MIC ([25]; Streptococcus agalactiae, 508) was 0.39 µg/mL (≈ 0.53 µM), the MIC ([26]; Streptococcus equinus, A5169) was 0.2 µg/mL (≈ 0.272 µM) and the MIC ([27]; Streptococcus pyogenes, 2548INDUC) was 3.1 µg/mL (≈ 4.21 µM). For the same molecule, the MIC ([28]; read-out: MIC) was over 100 µg/mL, the MIC ([29]; Streptococcus pyogenes, EES61) was 0.39 µg/mL (≈ 0.53 µM) and the MIC [30] was over 100 µg/mL. The MIC ([31]; Escherichia coli) was 1.56 µg/mL (≈ 2.12 µM), the MIC ([32]; Micrococcus luteus, ATCC9341) was 0.2 µg/mL (≈ 0.272 µM) and the MIC [33] was 0.2 µg/mL (≈ 0.272 µM). For the same molecule, the MIC ([34]; read-out: MIC) was 50 µg/mL (≈ 67.9 µM) and the MIC [35] was 12.5 µg/mL (≈ 17 µM).

Work on “(3"S)-11-O,12-O-carbonyl-3"-fluoro-3"-desmethoxy-4"-O-methylerythromycin A [Example 15]” yielded an MIC [1] of 100 µg/mL, an MIC [2] of over 100 µg/mL and an MIC ([3]; Enterococcus faecium ATCC 8043, BHI agar, 35°-37° C., 20 to 24 hours) of 0.05 µg/mL. For the same molecule, the MIC [4] was 100 µg/mL, the MIC [5] was 50 µg/mL and the MIC [6] was 100 µg/mL. The MIC [7] was 100 µg/mL, the MIC [8] was 100 µg/mL and the MIC ([9]; Micrococcus luteus 4698, BHI agar, 35°-37° C., 20 to 24 hours) was 0.1 µg/mL. For the same molecule, the MIC [10] was over 100 µg/mL, the MIC [11] was over 100 µg/mL and the MIC [12] was over 100 µg/mL. The MIC [13] was over 100 µg/mL, the MIC [14] was over 100 µg/mL and the MIC [15] was 100 µg/mL. For the same molecule, the MIC [16] was 25 µg/mL, the MIC [17] was over 100 µg/mL and the MIC [18] was 6.2 µg/mL. For the same molecule, the MIC [19] was over 100 µg/mL, the MIC ([20]; Staphylococcus aureus ATCC 6538P, BHI agar, 35°-37° C., 20 to 24 hours) was 0.39 µg/mL and the MIC ([21]; Staphylococcus aureus CMX 553, BHI agar, 35°-37° C., 20 to 24 hours) was 0.39 µg/mL. The MIC ([22]; Staphylococcus aureus CMX 642a, BHI agar, 35°-37° C., 20 to 24 hours) was 0.39 µg/mL, the MIC ([23]; Staphylococcus aureus NCTC 10649, BHI agar, 35°-37° C., 20 to 24 hours) was 0.39 µg/mL and the MIC ([24]; Staphylococcus epidermidis 3519, BHI agar, 35°-37° C., 20 to 24 hours) was 0.39 µg/mL. The MIC ([25]; Streptococcus agalactiae 508, BHI agar, 35°-37° C., 20 to 24 hours) was 0.05 µg/mL, the MIC ([26]; Streptococcus bovis A5169, BHI agar, 35°-37° C., 20 to 24 hours) was 0.01 µg/mL and the MIC ([27]; Streptococcus pyogenes 2548 induc, BHI agar, 35°-37° C., 20 to 24 hours) was 0.39 µg/mL. For the same molecule, the MIC [28] was over 100 µg/mL, the MIC ([29]; Streptococcus pyogenes EES61, BHI agar, 35°-37° C., 20 to 24 hours) was 0.05 µg/mL and the MIC ([31]; Escherichia coli SS, BHI agar, 35°-37° C., 20 to 24 hours) was 0.2 µg/mL. The MIC ([32]; Micrococcus luteus ATCC 9341, BHI agar, 35°-37° C., 20 to 24 hours) was 0.01 µg/mL and the MIC [34] was 3.1 µg/mL.
